Where two headings read alike, the source gives them in different places.
Tests used:
[1] = target: T1, hERG (Homo sapiens, UniProt Q12809); set-up: hERG inhibition liability assay
T1 construct: gene KCNH2

[2] = in vitro; set-up: cytotoxicity, per cent cell growth of WI-38 fibroblasts; details: human, wi-38 cells; read-out: % cell growth W1-38 at 10uM
[3] = test system: T. b. brucei Lister 427 bloodstream forms; assay: In vitro activity against T. brucei (HTS SYBR Green I growth inhibition assay); type: cell-based, Trypanosoma brucei brucei; details: for inhibition at 50 µM / EC50: Trypanosoma brucei; for inhibition at 50 µM: standard deviation within ±10% of the value, read-out: % Inhibition T. brucei at 50 μM; for % Antiparasitic Activity Tb brucei at 50uM: Table S1, compounds I-X
[4] = target: T2, TbPTR1 (Trypanosoma brucei brucei, UniProt O76290); assay: TbPTR1 direct enzyme inhibition assay for compounds I-X (Table S1); type: biochemical; details: for inhibition at 50 µM: 10 min, pH 6, 50 µM compound; for Ki: competitive inhibition mechanism assumed
T2 construct: made in house
T2 sequence (O76290 1-268): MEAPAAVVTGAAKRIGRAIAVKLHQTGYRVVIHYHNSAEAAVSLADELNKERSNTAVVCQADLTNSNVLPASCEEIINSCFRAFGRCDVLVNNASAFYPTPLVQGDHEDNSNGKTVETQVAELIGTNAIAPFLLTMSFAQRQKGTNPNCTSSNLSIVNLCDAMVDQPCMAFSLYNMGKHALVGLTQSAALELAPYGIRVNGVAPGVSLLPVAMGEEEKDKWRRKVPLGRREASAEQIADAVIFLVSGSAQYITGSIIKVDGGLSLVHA
Description: (b) PTR1 Enzyme inhibition. Compounds ICX were tested following the direct assay. The samples were incubated for
10 minutes at 30 °C, in buffer containing 50 mM Na citrate pH 3.7, TbPTR1, BH2 20 μM. (Dawson et al. Mol.
Microbiol. 2006, 61 (6), 1457–1468). Reaction start with NADPH. Compound concentrations depend on solubility and
ranged between 10C300 μM. Ki was calculated assuming a competitive inhibition mechanism.

[5] = test system: mammalian cells; assay: Toxicity against mammalian cells (Table S1); type: cell-based; details: read-out: IC50 vs mam.cells
[6] = target: T2, TbPTR1; assay: biochemical; details: for inhibition at 50 µM: 50 μM compound, read-out: % Inhibition TbPTR1 at 50 μM; for IC50: dose-response 0.001-100 μM
[7] = test system: 786-O; assay: cells; set-up: mitochondrial toxicity in 786-O renal carcinoma cells; details: Homo sapiens, 786-0; mitochondrial toxicity
[8] = target: CYP2C19 (Homo sapiens, UniProt P33261); assay: in vitro; set-up: cytochrome P450 isoform inhibition liability assay
[9] = target: CYP3A4 (Homo sapiens, UniProt P08684); assay: in vitro; set-up: cytochrome P450 isoform inhibition liability assay
[10] = target: CYP2C9 (Homo sapiens, UniProt P11712); assay: in vitro; set-up: cytochrome P450 isoform inhibition liability assay
[11] = target: CYP2D6 (Homo sapiens, UniProt P10635); assay: in vitro; set-up: cytochrome P450 isoform inhibition liability assay
[12] = target: T3, CYP1A2 (Homo sapiens, UniProt P05177); assay: in vitro; set-up: cytochrome P450 isoform inhibition liability assay
T3 sequence (P05177 1-516): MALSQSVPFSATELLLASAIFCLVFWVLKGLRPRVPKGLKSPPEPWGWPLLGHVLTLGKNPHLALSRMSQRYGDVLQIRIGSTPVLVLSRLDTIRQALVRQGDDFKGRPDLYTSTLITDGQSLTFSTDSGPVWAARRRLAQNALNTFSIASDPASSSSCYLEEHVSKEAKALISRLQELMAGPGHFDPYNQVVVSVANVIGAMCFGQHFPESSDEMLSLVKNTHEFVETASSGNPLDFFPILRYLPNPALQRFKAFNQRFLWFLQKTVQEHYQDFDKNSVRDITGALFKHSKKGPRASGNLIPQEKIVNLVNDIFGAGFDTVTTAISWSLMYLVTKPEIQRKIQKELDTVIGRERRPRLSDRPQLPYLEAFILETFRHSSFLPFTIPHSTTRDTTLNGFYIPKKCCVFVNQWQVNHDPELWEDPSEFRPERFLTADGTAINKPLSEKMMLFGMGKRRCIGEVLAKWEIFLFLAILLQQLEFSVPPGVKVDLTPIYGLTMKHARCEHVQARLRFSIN

[13] = in vitro; set-up: cytotoxicity, per cent cell growth of A549 cells; details: human, a549 cells; read-out: % cell growth A549 at 10uM
[14] = test system: T. b. brucei Lister 427 bloodstream forms; assay: T. brucei resazurin assay for MTX potentiation and folic acid supplementation; type: cell-based, Trypanosoma brucei brucei; details: for EC50: Trypanosoma brucei
Description: T. b. brucei Lister 427 bloodstream forms were grown at 37 °C and 5% CO2 in a complete HMI-9 medium, supplemented with 10% FCS and 100 UI/mL of penicillin/streptomycin. The cultures were diluted until a cell density of 2 × 10^6/mL was reached. The efficacy of compounds against T. brucei bloodstream forms was evaluated using a modified resazurin-based assay previously described.[46] The compounds were prepared from a stock solution in 10 mM DMSO and diluted in HMI-9 (supplemented or not with 1 mM folic acid, Sigma-Aldrich) to 40 μM work solution (0.4% DMSO, with the DMSO limit in the assay being 0.4%). […] The 40 μM work solution was then used to perform serial dilutions (1:2) in a 96-well plate. Upon compound addition to the test plate, the mid-log bloodstream forms were added (100 μL) in complete HMI-9 medium (supplemented or not with 1 mM folic acid) at a final cell density of 1 × 10^4/mL in a final well volume of 200 μL with a maximum DMSO concentration of 0.2%. Following incubation for 72 h at 37 °C and 5% CO2, 20 μL of 0.5 mM resazurin solution was added, and the plates were incubated further for 4 h under the same conditions. Fluorescence was measured at 540 and 620 nm excitation and emission wavelengths, respectively, using a Synergy 2 multi-mode reader (BioTek). […] This approach requires the use of both compounds at their EC50 potency in the combination, which is impossible to be detected for compound 4m having no intrinsic antiparasitic activity as a single agent at the tested concentrations. Folic acid (1 mM) was chosen on the basis of the following experiments. The stock solution of 10 mM folic acid dissolved in NaOH solution was used to perform a dose–response curve with folic acid alone to evaluate the maximum amount we could use without compromising parasite growth due to pH modification of the media. […] The IC50 values reported are the averages of the results obtained in at least two independent experiments. Pentamidine was used as the reference drug and internal control in all assays.

[15] = test system: T. b. brucei Lister 427 bloodstream forms; set-up: method as in PMID 27175479, PMID 27703008, PMID 18557814; details: no folate supplementation; read-out: reported EC50 T. brucei with no folate supplementation; cited from earlier work

Chain of CYP2C9 (P11712 whole entry, canonical isoform): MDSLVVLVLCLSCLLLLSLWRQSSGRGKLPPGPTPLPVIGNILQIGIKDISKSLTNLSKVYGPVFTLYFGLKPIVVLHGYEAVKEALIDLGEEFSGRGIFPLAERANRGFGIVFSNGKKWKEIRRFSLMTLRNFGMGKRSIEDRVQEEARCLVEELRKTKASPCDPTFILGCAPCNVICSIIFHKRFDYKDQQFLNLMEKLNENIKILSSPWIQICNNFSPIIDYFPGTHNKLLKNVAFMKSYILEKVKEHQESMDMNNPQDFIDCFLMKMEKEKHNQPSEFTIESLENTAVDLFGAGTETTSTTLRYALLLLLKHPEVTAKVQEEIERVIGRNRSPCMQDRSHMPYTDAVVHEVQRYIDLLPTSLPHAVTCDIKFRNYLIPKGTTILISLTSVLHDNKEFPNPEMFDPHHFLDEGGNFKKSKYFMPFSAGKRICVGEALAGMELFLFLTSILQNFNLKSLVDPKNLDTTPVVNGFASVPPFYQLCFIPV
T1 sequence (Q12809 whole entry): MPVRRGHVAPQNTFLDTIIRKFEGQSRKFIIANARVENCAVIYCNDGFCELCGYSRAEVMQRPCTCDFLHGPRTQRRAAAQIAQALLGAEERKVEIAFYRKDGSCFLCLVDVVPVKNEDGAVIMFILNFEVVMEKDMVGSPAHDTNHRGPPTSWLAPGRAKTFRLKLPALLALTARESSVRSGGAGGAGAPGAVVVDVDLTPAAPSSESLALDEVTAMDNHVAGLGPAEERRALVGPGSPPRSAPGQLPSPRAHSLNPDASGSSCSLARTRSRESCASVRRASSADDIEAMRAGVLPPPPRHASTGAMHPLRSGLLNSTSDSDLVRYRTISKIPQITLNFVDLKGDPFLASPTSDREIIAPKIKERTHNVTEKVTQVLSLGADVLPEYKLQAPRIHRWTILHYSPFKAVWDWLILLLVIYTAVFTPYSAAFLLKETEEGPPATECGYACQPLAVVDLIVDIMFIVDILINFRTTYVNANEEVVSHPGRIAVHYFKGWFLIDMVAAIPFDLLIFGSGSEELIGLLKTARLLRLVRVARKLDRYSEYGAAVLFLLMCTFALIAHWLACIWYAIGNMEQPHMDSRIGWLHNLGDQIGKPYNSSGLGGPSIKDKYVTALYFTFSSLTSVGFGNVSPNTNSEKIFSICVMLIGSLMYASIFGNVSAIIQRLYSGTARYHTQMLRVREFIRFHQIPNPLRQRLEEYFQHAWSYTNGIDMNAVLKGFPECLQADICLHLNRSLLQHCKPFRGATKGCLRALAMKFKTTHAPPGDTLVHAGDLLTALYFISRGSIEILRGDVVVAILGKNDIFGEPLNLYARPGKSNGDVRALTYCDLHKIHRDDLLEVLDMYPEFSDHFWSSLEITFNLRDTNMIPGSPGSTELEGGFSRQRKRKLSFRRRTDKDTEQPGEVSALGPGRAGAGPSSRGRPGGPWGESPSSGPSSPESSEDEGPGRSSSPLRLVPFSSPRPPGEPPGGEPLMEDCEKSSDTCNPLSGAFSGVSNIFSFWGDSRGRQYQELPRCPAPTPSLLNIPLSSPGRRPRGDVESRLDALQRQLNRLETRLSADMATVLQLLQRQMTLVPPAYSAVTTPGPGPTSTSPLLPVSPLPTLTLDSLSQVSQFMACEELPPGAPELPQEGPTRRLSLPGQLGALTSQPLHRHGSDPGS
Chain of CYP3A4 (P08684 whole entry, canonical isoform): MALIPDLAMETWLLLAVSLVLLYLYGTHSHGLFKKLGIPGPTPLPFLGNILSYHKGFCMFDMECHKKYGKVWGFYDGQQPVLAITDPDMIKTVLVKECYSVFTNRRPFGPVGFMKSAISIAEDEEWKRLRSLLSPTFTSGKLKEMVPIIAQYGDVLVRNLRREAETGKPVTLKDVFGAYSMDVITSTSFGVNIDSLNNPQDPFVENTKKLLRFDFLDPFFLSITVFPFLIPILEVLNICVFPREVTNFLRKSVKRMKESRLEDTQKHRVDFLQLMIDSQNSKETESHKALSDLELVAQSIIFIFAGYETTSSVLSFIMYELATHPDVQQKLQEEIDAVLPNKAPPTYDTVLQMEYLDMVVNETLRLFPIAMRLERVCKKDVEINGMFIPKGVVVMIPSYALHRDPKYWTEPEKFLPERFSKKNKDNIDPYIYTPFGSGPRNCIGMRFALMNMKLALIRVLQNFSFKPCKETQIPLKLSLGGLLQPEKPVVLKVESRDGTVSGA
Chain of CYP2D6 (P10635 whole entry, canonical isoform): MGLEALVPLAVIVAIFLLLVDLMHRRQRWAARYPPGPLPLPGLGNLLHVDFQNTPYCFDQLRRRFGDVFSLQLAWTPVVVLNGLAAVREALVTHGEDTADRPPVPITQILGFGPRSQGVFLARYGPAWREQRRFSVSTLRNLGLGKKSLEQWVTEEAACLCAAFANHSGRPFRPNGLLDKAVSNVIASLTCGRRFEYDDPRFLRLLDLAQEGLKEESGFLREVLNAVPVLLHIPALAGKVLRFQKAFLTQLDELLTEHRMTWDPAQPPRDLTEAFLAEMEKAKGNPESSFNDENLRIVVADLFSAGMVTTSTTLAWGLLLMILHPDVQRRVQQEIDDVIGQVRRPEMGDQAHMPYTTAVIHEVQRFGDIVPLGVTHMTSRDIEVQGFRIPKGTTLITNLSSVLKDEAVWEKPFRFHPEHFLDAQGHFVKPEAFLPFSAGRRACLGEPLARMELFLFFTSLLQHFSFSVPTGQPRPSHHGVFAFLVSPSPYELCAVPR
Chain of CYP2C19 (P33261 whole entry, canonical isoform): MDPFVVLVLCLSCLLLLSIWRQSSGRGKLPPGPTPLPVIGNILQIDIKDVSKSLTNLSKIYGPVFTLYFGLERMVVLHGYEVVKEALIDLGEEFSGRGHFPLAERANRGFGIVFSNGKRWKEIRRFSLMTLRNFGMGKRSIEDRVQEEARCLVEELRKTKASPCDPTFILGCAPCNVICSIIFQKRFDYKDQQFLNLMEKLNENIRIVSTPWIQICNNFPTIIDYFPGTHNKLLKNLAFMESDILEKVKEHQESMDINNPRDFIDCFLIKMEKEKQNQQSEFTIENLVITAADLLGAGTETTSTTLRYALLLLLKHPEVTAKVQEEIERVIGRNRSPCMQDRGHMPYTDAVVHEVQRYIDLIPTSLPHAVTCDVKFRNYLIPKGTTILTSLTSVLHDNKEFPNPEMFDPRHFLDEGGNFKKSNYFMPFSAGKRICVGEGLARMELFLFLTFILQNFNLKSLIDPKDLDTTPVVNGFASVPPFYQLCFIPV

Nc1nnc(CCC(=O)c2cccs2)s1 [3k]
inhibition at 10 µM [1]: 0.1 ± 6.4% | viability at 10 µM [2]: 92 ± 9.7% | inhibition at 50 µM [3]: 60.7% | inhibition at 50 µM [4]: 18% | Ki [4]: 48 µM | IC50 [5]: > 50 µM | inhibition at 50 µM [6]: 26 ± 0.7% | IC50 [6]: > 70 µM | inhibition at 10 µM [7]: -5.2 ± 3.9% | inhibition at 10 µM [8]: -3.4 ± 15.5% | inhibition at 10 µM [9]: 10.3 ± 7.8% | inhibition at 10 µM [10]: -10.5 ± 2.1% | inhibition at 10 µM [11]: -20.6 ± 3.1% | inhibition at 10 µM [12]: 4.9 ± 1.4% | viability at 10 µM [13]: 131 ± 2.8%

Nc1nnc(NCc2cccs2)s1 [4c]
inhibition at 10 µM [1]: 87.3 ± 5.7% | viability at 10 µM [2]: 96.3 ± 7.6% | inhibition at 50 µM [3]: < 0% | antiparasitic effect as single agent ([14]; compound alone, 4m at 50 μM): low T. brucei cell inhibitory activity | inhibition at 50 µM [6]: 50.6 ± 2.6% | IC50 [6]: 112 µM | inhibition at 10 µM [7]: 4.8 ± 2.9% | inhibition at 10 µM [8]: -13.9 ± 18% | inhibition at 10 µM [9]: -2.6 ± 4.5% | inhibition at 10 µM [10]: -7.7 ± 4.7% | inhibition at 10 µM [11]: 27.4 ± 5.7% | inhibition at 10 µM [12]: -3.2 ± 2.9% | viability at 10 µM [13]: 142 ± 13.8%

Nc1nnc(-c2cnccc2N)s1 [III]
EC50 T. b. brucei (compounds I-IV) ([3]; Table S1): not detectable | inhibition at 50 µM [4]: 15% | Ki [4]: 53 µM | IC50 [5]: > 50 µM

Nc1nnc(-c2ccc3[nH]nnc3c2)s1 [IV]
% Antiparasitic Activity Tb brucei at 50uM [3]: 67% | EC50 ([3]; Table S1, read-out: EC50 T. b. brucei (compounds I-IV)): 170 µM | inhibition at 50 µM [4]: 10% | Ki [4]: 88 µM | IC50 [5]: 51.5 µM

Nc1nnc(CCCl)s1 [I]
% Antiparasitic Activity Tb brucei at 50uM [3]: 90% | IC50 [5]: 4.2 ± 0.4 µM

CN(Cc1cnc2nc(N)nc(N)c2n1)c1ccc(C(=O)N[C@@H](CCC(=O)O)C(=O)O)cc1 [MTX, methotrexate, reference compound]
EC50 [15]: 0.012 µM | effect of 1 mM folic acid on T. b. brucei growth inhibition ([14]; 1 mM folic acid, MTX alone or equimolar 4m + MTX): reduce the antiparasitic activity | EC50 ([14]; media supplemented with 9 μM folic acid, read-out: EC50 T. brucei, single agent): 35 ± 3 µM

N=C(N)c1ccc(OCCCCCOc2ccc(C(=N)N)cc2)cc1 [Pentamidine, reference compound]
EC50 ([3]; read-out: EC50 T. b. brucei (reference compound, SYBR Green assay)): 0.0038 ± 0.00048 µM | EC50 ([14]; read-out: average EC50 T. brucei (reference drug, resazurin assay)): 0.00228 ± 0.00118 µM

— paper PMC5623949, “Exploiting the 2-Amino-1,3,4-thiadiazole Scaffold To Inhibit Trypanosoma brucei Pteridine Reductase in Support of Early-Stage Drug Discovery” (ACS Omega, 2017)
